“And” between values parts separate entries of the source, which are not always exact repeats. Equal values may be shown once. Toxic doses and inconclusive results are not listed. Rule for the calls: active = survival T/C of 150% or more; inactive = T/C below 125% in these data.
System: CD2F1 mice, L1210 leukemia ip, survival T/C
Experiment: NCI In Vivo Anticancer Drug Screen. Data for tumor model L1210 Leukemia (intraperitoneal) in CD2F1 (CDF1) mice
Conditions: endpoint: mean survival time, higher = longer survival
Outline: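 Tumor-bearing mice (transplanted tumor) were split into treated and vehicle control groups, and the measured endpoint of each treated group was divided by that of its vehicle controls.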

[1] = dose: 100.0 mg/kg/injection, schedule: Q01DX009 (ip), vehicle: saline with Tween-80
[2] = dose: 400.0 mg/kg/injection, schedule: Q01DX009 (ip), vehicle: saline with Tween-80
[3] = dose: 100.0 mg/kg/injection, schedule: Q04DX003 (ip), vehicle: saline with Tween-80
[4] = dose: 200.0 mg/kg/injection, schedule: Q04DX003 (ip), vehicle: saline with Tween-80
[5] = dose: 400.0 mg/kg/injection, schedule: Q04DX003 (ip), vehicle: saline with Tween-80
[6] = dose: 200.0 mg/kg/injection, schedule: Q01DX009 (ip), vehicle: saline with Tween-80
[7] = dose: 50.0 mg/kg/injection, schedule: Q01DX009 (ip), vehicle: saline with Tween-80
[8] = dose: 50.0 mg/kg/injection, schedule: Q01DX009 (ip), vehicle: saline
[9] = dose: 100.0 mg/kg/injection, schedule: Q01DX009 (ip), vehicle: saline
[10] = dose: 200.0 mg/kg/injection, schedule: Q01DX009 (ip), vehicle: saline

Measured: T/C

CCOC(=O)C[N+](CC)(CC)CC
inactive: dose: 100.0 mg/kg/injection, schedule: Q04DX003 (ip), vehicle: Klucel (hydroxypropylcellulose) (HPC) 96 % of control | dose: 200.0 mg/kg/injection, schedule: Q04DX003 (ip), vehicle: Klucel (hydroxypropylcellulose) (HPC) 96 % of control | dose: 400.0 mg/kg/injection, schedule: Q04DX003 (ip), vehicle: Klucel (hydroxypropylcellulose) (HPC) 93 % of control

CCOC(=O)CCCN(C)C(C)(C)C#N
inactive: [1] 103 % of control | [2] 108 % of control

CCNC(C)(C)C(SS)c1ccc(C(F)(F)F)cc1 (stereo not given)
inactive: [3] 88 % of control | [4] 90 % of control | [5] 93 % of control

COc1ccccc1CC(C)N (stereo not given)
inactive: dose: 20.0 mg/kg/injection, schedule: Q04DX003 (ip), vehicle: Klucel (hydroxypropylcellulose) (HPC) 90 % of control | dose: 40.0 mg/kg/injection, schedule: Q04DX003 (ip), vehicle: Klucel (hydroxypropylcellulose) (HPC) 91 % of control | dose: 80.0 mg/kg/injection, schedule: Q04DX003 (ip), vehicle: Klucel (hydroxypropylcellulose) (HPC) 96 % of control

O=C(CCCCC(=O)N/N=C/c1cccc([N+](=O)[O-])c1)N/N=C/c1cccc([N+](=O)[O-])c1
inactive: [1] 87 % of control | [6] 87 % of control | [2] 90 % of control

C(=C\CN(Cc1ccccc1)Cc1ccccc1)/CN(Cc1ccccc1)Cc1ccccc1
inactive: dose: 100.0 mg/kg/injection, schedule: Q01DX009 (ip), vehicle: Klucel (hydroxypropylcellulose) (HPC) 95 % of control | dose: 200.0 mg/kg/injection, schedule: Q01DX009 (ip), vehicle: Klucel (hydroxypropylcellulose) (HPC) 97 % of control

CCCCCCCCCCCCCCCCCCCCCC(O)(CC)CC
inactive: [1] 97 % of control | [3] 94 % of control | [6] 94 % of control | [4] 94 % of control | [2] 100 % of control | [5] 95 % of control

Oc1ccc(Br)cc1/C=N/c1nc(-c2ccccc2)cs1.Oc1ccc(Br)cc1/C=N/c1nc(-c2ccccc2)cs1.[Cu]
inactive: dose: 12.5 mg/kg/injection, schedule: Q01DX001 (ip), vehicle: saline 87 % of control | dose: 25.0 mg/kg/injection, schedule: Q01DX001 (ip), vehicle: saline 100 % of control | dose: 50.0 mg/kg/injection, schedule: Q01DX001 (ip), vehicle: saline 91 % of control | dose: 200.0 mg/kg/injection, schedule: Q01DX001 (ip), vehicle: saline with Tween-80 93 % of control

Nc1nc2ccc(CN(C=O)c3ccc(C(=O)NC(CCC(=O)O)C(=O)O)cc3)cc2c(=O)[nH]1 (stereo not given)
inactive: dose: 6.25 mg/kg/injection, schedule: Q01DX009 (ip), vehicle: water 94 % of control | dose: 12.5 mg/kg/injection, schedule: Q01DX009 (ip), vehicle: water 102 % of control | dose: 25.0 mg/kg/injection, schedule: Q01DX009 (ip), vehicle: water 105 % of control | dose: 50.0 mg/kg/injection, schedule: Q01DX009 (ip), vehicle: water 107 % of control | dose: 100.0 mg/kg/injection, schedule: Q01DX009 (ip), vehicle: water 119 % of control | dose: 200.0 mg/kg/injection, schedule: Q01DX009 (ip), vehicle: water 107 % of control | dose: 400.0 mg/kg/injection, schedule: Q01DX009 (ip), vehicle: water 100 % of control

O=C(Nc1ccccc1C(=O)O)c1cc([N+](=O)[O-])cc([N+](=O)[O-])c1
inactive: dose: 12.5 mg/kg/injection, schedule: Q01DX009 (ip), vehicle: saline with Tween-80 95 % of control and 97 % of control | dose: 25.0 mg/kg/injection, schedule: Q01DX009 (ip), vehicle: saline with Tween-80 101 % of control and 103 % of control | [7] 100 % of control and 101 % of control | [1] 95 % of control and 97 % of control | [6] 96 % of control

CN(C)Cc1cccc(CN(C)C)c1O
inactive: dose: 100.0 mg/kg/injection, schedule: Q01DX001 (ip), vehicle: saline 106 % of control

O=P(O)(O)OCC(O)CF (stereo not given)
inactive: dose: 87.5 mg/kg/injection, schedule: Q04DX003 (ip), vehicle: saline 118 % of control

COc1ccc2cc[n+](C)c(Cc3ccc(OC)c(Oc4ccc(Cc5c(OC)ccc6cc[n+](C)cc56)cc4)c3)c2c1
inactive: dose: 1.56 mg/kg/injection, schedule: Q04DX003 (ip), vehicle: other 98 % of control | dose: 3.13 mg/kg/injection, schedule: Q04DX003 (ip), vehicle: other 102 % of control | dose: 6.25 mg/kg/injection, schedule: Q04DX003 (ip), vehicle: other 98 % of control and 103 % of control

C1CCC2C[N-]CCC2C1.C1CCC2C[N-]CCC2C1.C1CCC2C[N-]CCC2C1.C1CCC2C[N-]CCC2C1.[Cl][Rh][Cl] (stereo not given)
inactive: dose: 0.25 mg/kg/injection, schedule: Q01DX009 (ip), vehicle: saline 98 % of control | dose: 0.5 mg/kg/injection, schedule: Q01DX009 (ip), vehicle: saline with Tween-80 92 % of control | dose: 0.5 mg/kg/injection, schedule: Q01DX009 (ip), vehicle: saline 104 % of control | dose: 1.0 mg/kg/injection, schedule: Q01DX009 (ip), vehicle: saline with Tween-80 96 % of control | dose: 1.0 mg/kg/injection, schedule: Q01DX009 (ip), vehicle: saline 104 % of control | dose: 2.0 mg/kg/injection, schedule: Q01DX009 (ip), vehicle: saline with Tween-80 96 % of control | dose: 2.0 mg/kg/injection, schedule: Q01DX009 (ip), vehicle: saline 105 % of control | dose: 4.0 mg/kg/injection, schedule: Q01DX009 (ip), vehicle: saline 113 % of control | dose: 8.0 mg/kg/injection, schedule: Q01DX009 (ip), vehicle: saline 115 % of control

Nc1ncnc2c1c1c(=O)[nH]c(=S)[nH]c1n2C1OC(CO)C(O)C1O (stereo not given)
inactive: dose: 25.0 mg/kg/injection, schedule: Q01DX005 (ip), vehicle: water 94 % of control | dose: 50.0 mg/kg/injection, schedule: Q01DX005 (ip), vehicle: water 100 % of control | dose: 100.0 mg/kg/injection, schedule: Q01DX005 (ip), vehicle: water 103 % of control | dose: 200.0 mg/kg/injection, schedule: Q01DX005 (ip), vehicle: water 105 % of control | dose: 400.0 mg/kg/injection, schedule: Q01DX005 (ip), vehicle: water 114 % of control

O=P(=O)OP(=O)=O.[O]=[W](=[O])=[O]
inactive: [1] 92 % of control | [3] 100 % of control | [4] 100 % of control | [5] 102 % of control

OC(Cc1cnc2ccccc2n1)(C(F)(F)F)C(F)(F)F
inactive: [3] 94 % of control | [4] 98 % of control | [5] 103 % of control

O=c1cc[nH]cc1[N+](=O)[O-]
inactive: [7] 101 % of control | [1] 101 % of control | dose: 100.0 mg/kg/injection, schedule: Q04DX003 (ip), vehicle: saline sonified 97 % of control | [6] 100 % of control | dose: 200.0 mg/kg/injection, schedule: Q04DX003 (ip), vehicle: saline sonified 95 % of control

O/N=C/c1ccc[nH]1
inactive: [3] 96 % of control | [4] 96 % of control | [5] 96 % of control

O=C1C2C3CCC(O3)C2C(=O)N1CC#CCN1C(=O)C2C3CCC(O3)C2C1=O (stereo not given)
inactive: dose: 100.0 mg/kg/injection, schedule: Q04DX002 (ip), vehicle: saline with Tween-80 98 % of control | dose: 200.0 mg/kg/injection, schedule: Q04DX002 (ip), vehicle: saline with Tween-80 98 % of control | dose: 400.0 mg/kg/injection, schedule: Q04DX002 (ip), vehicle: saline with Tween-80 90 % of control

C=CC1(O)CC2CCC1C2 (stereo not given)
inactive: [3] 106 % of control | [4] 93 % of control | [5] 101 % of control

O=C1C=CC(=O)c2ccccc21
inactive: dose: 1.0 mg/kg/injection, schedule: Q01DX009 (ip), vehicle: Klucel (hydroxypropylcellulose) (HPC) 94 % of control | dose: 1.25 mg/kg/injection, schedule: Q04DX003 (ip), vehicle: saline with Tween-80 104 % of control | dose: 2.0 mg/kg/injection, schedule: Q01DX009 (ip), vehicle: Klucel (hydroxypropylcellulose) (HPC) 102 % of control | dose: 2.5 mg/kg/injection, schedule: Q04DX003 (ip), vehicle: saline with Tween-80 95 % of control | dose: 4.0 mg/kg/injection, schedule: Q01DX009 (ip), vehicle: Klucel (hydroxypropylcellulose) (HPC) 102 % of control

[O-][n+]1cccc(CCc2ccc[n+]([O-])c2)c1
inactive: [8] 100 % of control | [9] 104 % of control | [10] 100 % of control

CCOC(=O)NC(=O)/C=C/N1CCCC1
inactive: [8] 102 % of control | [9] 97 % of control | [10] 94 % of control

OCC(O)C(O)C(O)C(/C=N/Nc1ccccc1)=N\Nc1ccccc1 (stereo not given)
inactive: dose: 75.0 mg/kg/injection, schedule: Q01DX001 (ip), vehicle: saline 95 % of control | dose: 150.0 mg/kg/injection, schedule: Q01DX001 (ip), vehicle: saline 100 % of control | dose: 300.0 mg/kg/injection, schedule: Q01DX001 (ip), vehicle: saline 97 % of control

Cc1noc(C)c1CO
inactive: [9] 100 % of control | [10] 101 % of control | dose: 400.0 mg/kg/injection, schedule: Q01DX009 (ip), vehicle: saline 101 % of control
